The results in this text go back to PubChem BioAssay (NCI).

Molecules are shown by their SMILES.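 Five compound concentrations were applied to cells in 96-well plates for 48 hours; endpoints were derived by simple linear interpolation of the resulting dose-response curve. The concentration for 50% growth inhibition is given as GI50. Definition used: TGI = concentration required for complete inhibition of growth.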 Where a SMILES comes first, the peptide text is derived from it. [ ]: non-standard residue; d: D form. The star is where a group is joined. ξ: configuration not given here. X16 = COC1=CC(=O)N(C(=O)C(O*)C(C)C)C1Cc1ccccc1; ξNMe2Val = CC(C)C(C(=O)*)N(C)C; NMeV = CN[CH](C(=O)O)C(C)C

Test systems include A549 NSCLC; HOP-92 NSCLC; HT29 colon; KM12 colon; NCI-H460 lung; SNB-75 CNS; SR leukemia; BT-549 breast; MDA-MB-435; PC-3 prostate.
Common to all, as to assay: growth of human tumour cells (NCI), 48 h

Consider `COc1cc2c(cc1O)[C@H](C)C(c1ccc(Cl)cc1)O2` (some centres not stated), for which the TGI was 98.6 µM in the assay with A549 NSCLC; 40.4 µM in the assay on HOP-92 NSCLC; above 100 µM with HT29 colon; 62.1 µM in the assay with KM12 colon; 33.4 µM with NCI-H460 lung; 43.3 µM with SNB-75 CNS.
As to `O=c1[nH]cnc2c1nnn2CCCn1nnc2c(=O)[nH]cnc21`, the TGI in the assay on A549 NSCLC, with HOP-92 NSCLC, in the assay on HT29 colon, in the assay on KM12 colon, in the assay with NCI-H460 lung and in the assay with SR leukemia was above 100 µM each time.
With `c1ccc2[nH]c(-c3nc4ccccc4o3)nc2c1`, the TGI in the assay on A549 NSCLC, in the assay with HOP-92 NSCLC, in the assay with HT29 colon, in the assay with KM12 colon, in the assay on NCI-H460 lung and in the assay on SNB-75 CNS was above 100 µM in each case. In the assay with SR leukemia, this compound returned a TGI above 100 µM.
With `COC(=O)/C(=C/c1ccc(OC)cc1)C(C(=O)O)=C(C)C`, the TGI in the assay with A549 NSCLC, in the assay on HOP-92 NSCLC, with HT29 colon, in the assay on KM12 colon, in the assay on NCI-H460 lung and in the assay with SR leukemia was above 100 µM each time.
As for `Oc1c(Cl)c2nccnc2c2ccccc12`, the TGI in the assay on A549 NSCLC, with HOP-92 NSCLC, in the assay on HT29 colon, with KM12 colon, with NCI-H460 lung and in the assay with SNB-75 CNS was above 100 µM throughout.
On to `C[N+]1(C)C2Cc3ccccc3C1Cc1ccccc12`, for which the TGI with A549 NSCLC, in the assay with BT-549 breast, in the assay with HOP-92 NSCLC, in the assay with HT29 colon, in the assay with KM12 colon and in the assay on MDA-MB-435 was above 100 µM each time. In addition, the TGI in the assay on NCI-H460 lung and in the assay on PC-3 prostate was above 100 µM each time.
Regarding `C=CCN1C(=O)CS/C1=N\NC(=O)c1c(C)nc2sccn12`, the TGI in the assay on A549 NSCLC, with HOP-92 NSCLC, in the assay on HT29 colon, in the assay with KM12 colon, in the assay with NCI-H460 lung and in the assay on SR leukemia was above 100 µM each time.
As to `O=[N+]([O-])/C(C(Cl)=C(Cl)Cl)=C1\Nc2ccccc2O1`, the TGI was above 100 µM in the assay on A549 NSCLC; 62.4 µM in the assay on HOP-92 NSCLC; above 100 µM with HT29 colon; above 100 µM with KM12 colon; above 100 µM in the assay with MDA-MB-435; above 100 µM in the assay with NCI-H460 lung. Besides, the TGI in the assay with PC-3 prostate was above 100 µM; with SNB-75 CNS, 64.8 µM; in the assay with SR leukemia, 63.7 µM.
For `C=C/C(C)=C/[C@H](C)C(=O)C[C@H](O)CC1CC(=O)NC(=O)C1`, the TGI is above 100 µM in the assay on A549 NSCLC; above 89.6 µM in the assay with HOP-92 NSCLC; above 100 µM with HT29 colon; above 100 µM in the assay with KM12 colon; above 100 µM in the assay with NCI-H460 lung; above 100 µM with SNB-75 CNS.
In the case of `COC(=O)[C@]1(C)CCCn2c(=O)n(-c3ccccc3)c(=O)n21`, the TGI in the assay with A549 NSCLC, with BT-549 breast, with HOP-92 NSCLC, in the assay with HT29 colon, in the assay with KM12 colon and in the assay with MDA-MB-435 was above 100 µM each time. Also, the TGI in the assay on PC-3 prostate and in the assay on SNB-75 CNS was above 100 µM each time.
Turning to `CC(C)(C)C1CC[C@H]2c3c([nH]c4ccc(Br)cc34)[C@H]3C(=O)N(c4ccccc4)C(=O)[C@H]3[C@H]2C1` (some centres not stated), the TGI in the assay with A549 NSCLC is above 100 µM; in the assay with HOP-92 NSCLC it was 78.7 µM; in the assay with HT29 colon it was above 100 µM; in the assay on KM12 colon it was above 100 µM; in the assay on NCI-H460 lung, 38.9 µM; with SNB-75 CNS, 54.9 µM. Also, in the assay with SR leukemia, the TGI is 12.1 µM.
As to `Nc1c(Br)cc(-c2cc(Br)c(N)c(Br)c2)cc1Br`, the TGI with A549 NSCLC, in the assay on HOP-92 NSCLC, with HT29 colon, in the assay with KM12 colon, in the assay on MDA-MB-435 and with NCI-H460 lung was above 100 µM each time. Besides, the TGI in the assay on PC-3 prostate, with SNB-75 CNS and in the assay on SR leukemia was above 100 µM each time.
Take `O=C(NCc1cn(Cc2cccc(Oc3ccccc3)c2)nn1)c1cccnc1Nc1ccccc1`: the GI50 is 4.81 µM in the assay with A549 NSCLC; 2.8 µM in the assay with BT-549 breast; 3.65 µM with HT29 colon; 3.63 µM with KM12 colon; 2.85 µM in the assay with NCI-H460 lung; 3.27 µM in the assay with PC-3 prostate. Besides, the GI50 in the assay on SNB-75 CNS is 1.94 µM; in the assay with SR leukemia it was 2.57 µM. For the same compound, the TGI with A549 NSCLC is 95.2 µM; with BT-549 breast, 8.53 µM; with HT29 colon, 11.6 µM; in the assay with KM12 colon, 46.4 µM; with NCI-H460 lung, 10.5 µM; in the assay on PC-3 prostate it was above 100 µM. In addition, the TGI was 9.96 µM in the assay on SNB-75 CNS and above 100 µM with SR leukemia.
For the compound `CN(C)[C@@H]1C(=O)C(C(N)=O)=C(O)[C@@]2(O)C(=O)C3=C(O)c4c(O)cccc4C[C@H]3C[C@@H]12`, the TGI was 5.52 µM in the assay on A549 NSCLC; 5.19 µM in the assay on HOP-92 NSCLC; 6.54 µM with KM12 colon; 6.48 µM with NCI-H460 lung; 2.98 µM with SNB-75 CNS; 6.05 µM in the assay on SR leukemia.
In the case of `OCC(O)COc1ccc(Br)cc1` (configuration not stated), the TGI with A549 NSCLC, in the assay on HOP-92 NSCLC, in the assay on HT29 colon, in the assay with KM12 colon, with SNB-75 CNS and with SR leukemia was above 100 µM throughout.
`COC1=CC(=O)N(C(=O)C(OC(=O)C2CCCN2C(=O)C2CCCN2C(=O)C(C(C)C)N(C)C(=O)C(NC(=O)C(C(C)C)N(C)C)C(C)C)C(C)C)C1Cc1ccccc1` (configuration not stated) (ξNMe2Val-V[NMeV]PP-X16; configuration not given here): the GI50 with A549 NSCLC is 0.00715 µM; with HOP-92 NSCLC it was 0.000954 µM; with KM12 colon, below 0.0004 µM; with NCI-H460 lung, below 0.0004 µM; with SNB-75 CNS it was below 0.0004 µM. Further, the TGI with A549 NSCLC is above 4 µM; in the assay with HT29 colon it was 0.0066 µM; in the assay with KM12 colon, above 4 µM; with MDA-MB-435 it was 0.000576 µM; in the assay with NCI-H460 lung, 0.519 µM.
